From patent publication US5476944A, “Derivatives of cyclic phenolic thioethers” (G. D. Searle & Co., priority 1994, dated 1995) come the findings set out here.

pIC50: −log10 of the molar value. Bounds are passed on as bounds.

The target in one assay is T1, COX-II (Homo sapiens, UniProt P35354).
T1 construct: made in house; host or cells: SF9 insect cells, recombinant baculovirus (pVL1393); coding fragment from Cayman Chemical
T1 sequence (P35354 18-604): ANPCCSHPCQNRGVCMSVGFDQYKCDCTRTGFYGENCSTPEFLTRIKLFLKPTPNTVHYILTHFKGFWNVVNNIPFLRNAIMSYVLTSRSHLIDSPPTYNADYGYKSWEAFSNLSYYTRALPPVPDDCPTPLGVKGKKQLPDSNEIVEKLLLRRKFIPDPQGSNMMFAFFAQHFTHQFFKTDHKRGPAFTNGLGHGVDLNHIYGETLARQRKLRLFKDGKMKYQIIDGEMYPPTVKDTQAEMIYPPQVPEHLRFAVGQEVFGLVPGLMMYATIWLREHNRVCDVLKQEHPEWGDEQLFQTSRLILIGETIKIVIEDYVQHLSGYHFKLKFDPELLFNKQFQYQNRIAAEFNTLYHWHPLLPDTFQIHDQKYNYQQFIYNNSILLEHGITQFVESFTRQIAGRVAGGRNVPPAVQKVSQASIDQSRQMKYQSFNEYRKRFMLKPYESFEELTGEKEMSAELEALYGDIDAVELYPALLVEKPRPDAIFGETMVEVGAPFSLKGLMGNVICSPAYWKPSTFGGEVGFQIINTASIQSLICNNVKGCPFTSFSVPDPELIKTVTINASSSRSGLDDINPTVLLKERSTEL
Put plainly: Human Enzyme Assay, recombinant COX-II (PGE2 ELISA). The class given is biochemical. The procedure: The compounds of the invention are evaluated with respect to COX-I and COX-II activity in vitro using an enzyme based assay according to the following assay procedure.
(a) Preparation of Recombinant COX Baculoviruses
A 2.0 kb fragment containing the coding region for either human or murine COX-I (Caymen Chemical, Ann Arbor, Mich.), or human or murine COX-II (Caymen Chemical, Ann Arbor, Mich.), was cloned into a BamH1 site of the baculovirus transfer vector pVL1393 (Invitrogen, Palo Alto, Calif.) to generate a baculovirus transfer vector. Recombinant baculoviruses were isolated by transfecting 4 μg of baculovirus transfer vector DNA into SF9 cells (2×10e8) (Invitrogen, Palo Alto, Calif.) along with 200 ng of linearized bacium by the phosphate method. See M. D. Summers et al., "A Manual of Methods for Baculovirus Vectors and Insect Cell Culture Procedure," TEXAS AGRICULTURE EXPERIMENTAL STATION BULLETIN, No. 1555 (1987), which is incorporated herein by reference. Recombinant viruses were purified by three rounds of plaque purification, and high titer (10e7-10e8 pfu/ml) stocks of virus were prepared. For large scale production, SF9 insect cells (Invitrogen, Palo Alto, Calif.) were infected in 10 liter fermentors (0.5×10^6 /ml) with the recombinant baculovirus stock, such that the multiplicity of infection was 0.1. After 72 hours, the cells were centrifuged and the cell pellet was homogenized in Tris/Sucrose (50 mM: 25%, pH 8.0) containing 1% CHAPS. The homogenate was centrifuged at 10,000×G for 30 minutes, and the resultant supernatant was stored at -80° C. before being assayed for COX activity.
b. Assay for COX-I and COX-II activity:
COX activity was assayed as PGE2 formed/μg protein/time using an ELISA (Caymen Chemical, Ann Arbor, Mich.) to detect the prostaglandin E2 released. CHAPS-solubilized insect cell membranes containing the appropriate COX enzyme were incubated in a potassium phosphate buffer (50 mM, pH 8.0) containing phenol (0.5 mM), and heme (1 μM) with the addition of arachidonic acid (10 μM). Compounds of the present invention were pre-incubated with the enzyme for 10-20 minutes prior to the addition of the COX-I and COX-II enzyme substrate arachidonic acid (10 μM). Any reaction between the arachidonic acid and the enzyme was stopped after ten minutes at 37° C./room temperature by transferring 40 μl of reaction mix into […] ELISA buffer and 25 μM indomethacin. The PGE2 formed was measured by standard ELISA technology (Cayman Chemical, Ann Arbor, Mich.).
The results for this assay, as well as for the next assay (COX-II Cell Fibroblast Assay) are expressed in terms of COX-I or II activity as an IC50 value (50% inhibitory concentration), as defined as the amount of prostaglandin E2 (PGE2) formed per protein per time in response to the enzyme substrate arachidonic acid.

The target in the next assay is T2, 5-lipoxygenase (Rattus norvegicus, UniProt P12527).
T2 construct: The 100,000×g supernatant fraction of Rat Basophilic Leukemia Cell Homogenate (RBL-1); endogenous in cells; host or cells: RBL-1 (rat basophilic leukemia) cells, 100,000xg supernatant of homogenate
T2 sequence (P12527 1-673): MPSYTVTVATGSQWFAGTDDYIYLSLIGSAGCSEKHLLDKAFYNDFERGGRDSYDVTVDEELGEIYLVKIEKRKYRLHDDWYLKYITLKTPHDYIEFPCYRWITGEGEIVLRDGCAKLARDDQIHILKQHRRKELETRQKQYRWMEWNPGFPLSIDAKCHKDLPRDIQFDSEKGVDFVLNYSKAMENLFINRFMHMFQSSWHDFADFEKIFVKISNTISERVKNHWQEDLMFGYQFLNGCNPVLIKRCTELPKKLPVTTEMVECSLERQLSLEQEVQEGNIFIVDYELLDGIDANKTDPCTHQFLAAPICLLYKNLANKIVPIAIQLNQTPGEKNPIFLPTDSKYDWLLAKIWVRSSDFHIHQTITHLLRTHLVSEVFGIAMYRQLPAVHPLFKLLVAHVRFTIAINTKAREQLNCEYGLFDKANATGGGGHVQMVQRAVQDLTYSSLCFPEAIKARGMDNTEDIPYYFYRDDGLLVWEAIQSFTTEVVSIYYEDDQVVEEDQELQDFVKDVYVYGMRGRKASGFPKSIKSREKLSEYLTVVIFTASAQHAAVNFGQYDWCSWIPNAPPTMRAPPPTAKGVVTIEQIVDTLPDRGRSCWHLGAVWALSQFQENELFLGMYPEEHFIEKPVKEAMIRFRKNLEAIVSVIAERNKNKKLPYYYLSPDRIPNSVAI
Put plainly: Inhibition of 5-lipoxygenase, in vitro (5-HETE formation, RBL-1 homogenate supernatant). The class given is biochemical. The conditions noted are these: RBL-1 supernatant. The procedure:
The compounds of the invention are evaluated with respect to 5-lipoxygenaseinhibition according to the following assay procedure.
Inhibition of 5-lipoxygenase, in vitro:
The 100,000×g supernatant fraction of Rat Basophilic Leukemia Cell Homogenate (RBL-1) serves as a 5-lipoxygenase enzyme source. The enzyme is incubated with [1-^4 C)-arachidonic acid and Ca++ in the presence and absence of test compound. The product of 5-lipoxygenase, 5-hydroxyeicosatetraenoic acid (5-HETE), is separated by thin-layer chromatography and measured by radioactivity. A compound inhibiting 5-HETE synthesis by 30% or more is considered active at that concentration.
For comparison the compound of Formula XX, a known 5-lipoxygenase inhibitor described in U.S. Pat. No. 4,755,524 was used: [drawing 29] (±)[2S*-[[3,5-bis(1,1-dimethylethyl)-4-hydroxyphenyl]thio]-1R*-methylpro poxy]acetic acid.

Consider `CC(C)(C)c1cc(S[C@H]2CCCC[C@H]2OCC(=O)O)cc(C(C)(C)C)c1` (racemic) [Example 72, (±)cis-2-[[2-[[3,5-bis(1,1-dimethylethyl)phenyl]thio]cyclohexyl]oxy]acetic acid], for which the pIC50 (usually the negative decadic logarithm of the IC50, by convention in mol/L) at COX-II was 5.39; at 5-lipoxygenase, less than 4.00.
